Reference: patent US20230257351A1, “SUBSTITUTED N-[…] HAVING P2X4 RECEPTOR ANTAGONISTIC ACTIVITY” (Bayer Aktiengesellschaft, priority 2020, published 2023)

Assays:
rat P2X4 = biological target: T1, rat P2X4 (Rattus norvegicus, UniProt P51577); test: FLIPR Method for Rat P2X4 1321N1 Astrocytoma Cells; type: cell-based; settings: 1321N1 stably expressing rat P2X4; agonist MgATP 5 μM (EC80)
T1 construct: expressed in transfected cells
T1 sequence (P51577 1-388): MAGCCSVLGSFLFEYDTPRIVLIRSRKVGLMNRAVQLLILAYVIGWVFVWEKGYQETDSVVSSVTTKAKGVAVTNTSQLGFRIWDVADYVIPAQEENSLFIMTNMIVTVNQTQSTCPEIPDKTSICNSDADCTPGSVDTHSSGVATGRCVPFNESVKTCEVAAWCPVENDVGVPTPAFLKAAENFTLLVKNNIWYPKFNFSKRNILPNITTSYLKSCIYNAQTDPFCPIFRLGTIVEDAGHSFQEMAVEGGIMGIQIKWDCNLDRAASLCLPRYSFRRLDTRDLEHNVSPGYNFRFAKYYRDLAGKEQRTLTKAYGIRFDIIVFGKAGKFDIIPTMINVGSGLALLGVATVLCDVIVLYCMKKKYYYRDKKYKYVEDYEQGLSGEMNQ
Summary of the method: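 1321N1 cells stably expressing rat P2X4, Fluo8-AM loaded; compounds (25 μM to 1 nM final, ten concentrations) preincubated 30 min at room temperature, then MgATP added at 5 μM (EC80). Calcium fluorescence read on FLIPR before and after agonist; triplicate data normalized to agonist control, four-parameter fit gives IC50.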

human P2X4 = biological target: T2, human P2X4 (Homo sapiens, UniProt Q99571); test: Human P2X4 HEK Cell FLIPR Assay; type: cell-based; settings: HEK293 stably expressing human P2X4, agonist Bz-ATP 3 μM (EC80); for IC50: read-out: Human P2X4 HEK Cells (FLIPR Assay) avg IC50
T2 construct: expressed in transfected cells
T2 sequence (Q99571 1-388): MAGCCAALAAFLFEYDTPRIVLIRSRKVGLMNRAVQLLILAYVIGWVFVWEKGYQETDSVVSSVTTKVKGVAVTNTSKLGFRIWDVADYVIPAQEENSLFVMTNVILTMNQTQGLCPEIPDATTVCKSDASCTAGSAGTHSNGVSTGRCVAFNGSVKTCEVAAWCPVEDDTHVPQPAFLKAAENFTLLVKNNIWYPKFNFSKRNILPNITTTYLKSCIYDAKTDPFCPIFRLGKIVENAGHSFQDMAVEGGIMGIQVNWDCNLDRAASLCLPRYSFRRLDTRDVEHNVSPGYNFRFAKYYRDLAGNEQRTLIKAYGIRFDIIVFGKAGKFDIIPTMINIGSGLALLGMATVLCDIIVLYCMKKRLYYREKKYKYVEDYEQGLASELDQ
Summary of the method: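 HEK293 cells stably expressing human P2X4 were loaded with Fluo8-AM (30 min, 37 °C, HBSS/HEPES pH 7.4 with probenecid), then preincubated 30 min at room temperature with compound, 25 μM–1 nM final, 0.5% DMSO. Bz-ATP-evoked calcium fluorescence was read on FLIPR; data were normalized to agonist control and given a four-parameter fit for IC50.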

| Structure (SMILES) | IC50 (rat P2X4) | Rat P2X4 1321N1 Astrocytoma Cells (FLIPR Assay) avg Efficacy (rat P2X4) | Human P2X4 HEK Cells (FLIPR Assay) avg Efficacy (human P2X4) | IC50 (human P2X4) |
| --- | --- | --- | --- | --- |
| CC(=O)N(c1cc(NC(=O)Cc2ccccc2Cl)ccn1)c1cc(F)ccc1Cl [Example 111, N-(2-chloro-5-fluorophenyl)-N-{4-[2-(2-chlorophenyl)acetamido]pyridin-2-yl}acetamide] | 320 nM | 100% | 96% | 204 nM |
| CC(=O)N(c1cc(NC(=O)Cc2ccc(F)cc2Cl)ccn1)c1cc(F)ccc1Cl [Example 112, N-(2-chloro-5-fluorophenyl)-N-{4-[2-(2-chloro-4-fluorophenyl)acetamido]pyridin-2-yl}acetamide] | 408 nM | 97% | 96% | 403 nM |
| CC(=O)N(c1cc(NC(=O)Cc2cccc(F)c2Cl)ccn1)c1cc(F)ccc1Cl [Example 113, N-(2-chloro-5-fluorophenyl)-N-{4-[2-(2-chloro-3-fluorophenyl)acetamido]pyridin-2-yl}acetamide] | 567 nM | 100% | 97% | 286 nM |
| CC(=O)N(c1cc(NC(=O)Cc2ccc(F)cc2Cl)ccn1)c1cccc(F)c1F [Example 123, N-{4-[2-(2-chloro-4-fluorophenyl)acetamido]pyridin-2-yl}-N-(2,3-difluorophenyl)acetamide] | 633 nM | 89% | 97% | 435 nM |
| CC(=O)N(c1cc(NC(=O)Cc2ccc(F)cc2Cl)ccn1)c1ccc(F)cc1F [Example 127, N-{4-[2-(2-chloro-4-fluorophenyl)acetamido]pyridin-2-yl}-N-(2,4-difluorophenyl)acetamide] | 261 nM | 72% | 97% | 283 nM |
| CC(=O)N(c1cc(NC(=O)Cc2c(Cl)cccc2Cl)ccn1)c1ccc(F)cc1F [Example 129, N-{4-[2-(2,6-dichlorophenyl)acetamido]pyridin-2-yl}-N-(2,4-difluorophenyl)acetamide] | 212 nM | 96% | 104% | 197 nM |
| CC(=O)N(c1cccc(Cl)c1)c1cc(NC(=O)Cc2ccccc2Cl)ccn1 [Example 131, N-(3-chlorophenyl)-N-{4-[2-(2-chlorophenyl)acetamido]pyridin-2-yl}acetamide] | 262 nM | 98% | 98% | 206 nM |
| CC(=O)N(c1cccc(Cl)c1)c1cc(NC(=O)Cc2cccc(F)c2Cl)ccn1 [Example 133, N-{4-[2-(2-chloro-3-fluorophenyl)acetamido]pyridin-2-yl}-N-(3-chlorophenyl)acetamide] | 325 nM | 100% | 100% | 193 nM |
| CC(=O)N(c1cccc(Cl)c1)c1cc(NC(=O)Cc2c(F)cccc2Cl)ccn1 [Example 135, N-{4-[2-(2-chloro-6-fluorophenyl)acetamido]pyridin-2-yl}-N-(3-chlorophenyl)acetamide] | 264 nM | 96% | 99% | 281 nM |
| CCCC(=O)N(c1ccc(F)cc1)c1cc(NC(=O)Cc2c(Cl)cccc2Cl)ccn1 [Example 144, N-{4-[2-(2,6-dichlorophenyl)acetamido]pyridin-2-yl}-N-(4-fluorophenyl)butanamide] | 557 nM | 100% | 90% | 648 nM |

Continued, values first:

| IC50 (rat P2X4) | Rat P2X4 1321N1 Astrocytoma Cells (FLIPR Assay) avg Efficacy (rat P2X4) | Human P2X4 HEK Cells (FLIPR Assay) avg Efficacy (human P2X4) | IC50 (human P2X4) | Structure (SMILES) |
| --- | --- | --- | --- | --- |
| 181 nM | 99% | 97% | 256 nM | CC(=O)N(c1cc(NC(=O)Cc2c(Cl)cccc2Cl)ccn1)c1cc(F)ccc1Cl [Example 114, N-(2-chloro-5-fluorophenyl)-N-{4-[2-(2,6-dichlorophenyl)acetamido]pyridin-2-yl}acetamide] |
| 377 nM | 83% | 96% | 176 nM | CC(=O)N(c1cc(NC(=O)Cc2ccccc2Cl)ccn1)c1ccc(F)cc1F [Example 126, N-{4-[2-(2-chlorophenyl)acetamido]pyridin-2-yl}-N-(2,4-difluorophenyl)acetamide] |
| 454 nM | 87% | 101% | 184 nM | CC(=O)N(c1cc(NC(=O)Cc2cccc(F)c2Cl)ccn1)c1ccc(F)cc1F [Example 128, N-{4-[2-(2-chloro-3-fluorophenyl)acetamido]pyridin-2-yl}-N-(2,4-difluorophenyl)acetamide] |
| 1520 nM | 80% | 97% | 259 nM | CC(=O)N(c1cc(NC(=O)Cc2c(F)cccc2Cl)ccn1)c1ccc(F)cc1F [Example 130, N-{4-[2-(2-chloro-6-fluorophenyl)acetamido]pyridin-2-yl}-N-(2,4-difluorophenyl)acetamide] |
| 228 nM | 97% | 98% | 299 nM | CC(=O)N(c1cccc(Cl)c1)c1cc(NC(=O)Cc2ccc(F)cc2Cl)ccn1 [Example 132, N-{4-[2-(2-chloro-4-fluorophenyl)acetamido]pyridin-2-yl}-N-(3-chlorophenyl)acetamide] |
| 726 nM | 100% | 99% | 891 nM | CCCC(=O)N(c1ccc(F)cc1)c1cc(NC(=O)Cc2ccc(F)cc2Cl)ccn1 [Example 141, N-{4-[2-(2-chloro-4-fluorophenyl)acetamido]pyridin-2-yl}-N-(4-fluorophenyl)butanamide] |
| 767 nM | 98% | 86% | 796 nM | CCCC(=O)N(c1ccc(F)cc1)c1cc(NC(=O)Cc2c(F)cccc2Cl)ccn1 [Example 142, N-{4-[2-(2-chloro-6-fluorophenyl)acetamido]pyridin-2-yl}-N-(4-fluorophenyl)butanamide] |
| 934 nM | 101% | 94% | 723 nM | CCCC(=O)N(c1ccc(F)cc1)c1cc(NC(=O)Cc2ccccc2Cl)ccn1 [Example 143, N-{4-[2-(2-chlorophenyl)acetamido]pyridin-2-yl}-N-(4-fluorophenyl)butanamide] |
